Measurements taken from patent US8349845B2, “Thiazolopyrimidines for use in therapy” (Sosei Group Corporation, priority 2005, dated 2013).

Tests used:
[1] = test system: mice with autoimmune neuropathy; settings: preclinical studies; cited from earlier work
CCI rats [2] = test: Tolerance liability in CCI model (PWT over 7 days of dosing); format: in vivo, rat
Method: The preparation of CCI model rats and the assessment of neuropathic pain state using von Frey hairs were as the same as described for Example 1. The PWT was assessed in the morning for 3 consecutive days prior to the surgery and on days 6, 14, 15 and 16 after surgery. Starting from day 16, the animals were either dosed with vehicle (5% DMSO in saline, 1 ml/kg) or Compound 130 mg/kg p.o., twice a day for 7 days. From day 16 onward, PWT was assessed thereafter every morning and 4 hours after dosing, up to day 23 post surgery.

CCI rats [3] = test: Dose-response study, mechanical allodynia (PWT) in CCI model; format: in vivo, rat; settings: CCI rats, 1, 3, 10, 30 mg/kg orally, 30-360 min after dosing
Method: The methods for preparing CCI animals and assessing mechanical allodynia using von Frey hairs were as described in Example 1. Four doses of Compound 1 (1, 3, 10, 30 mg/kg) were given orally and the PWT was reassessed at 30, 60, 120, 180, 240 and 360 min after dosing.

[4] = test system: ectopic discharge in CCI rats; test: Acute administration, spontaneous ectopic discharge in sural nerve of CCI rats; format: in vivo, rat
Method: The preparation of CCI model rats and the assessment of neuropathic pain state were as described for Example 1. The electrophysiological experiments were performed on CCI rats with neuropathic pain states confirmed by von Frey hair testing as previously described. Compound 1 suspension was made in a vehicle containing 1% DMSO, 66% PEG200 and 33% saline to 5 mg/ml. Rats with neuropathic pain were anaesthetized with thiobutabarbital sodium (inactin, 120 mg/kg, i.p. for induction and thereafter 60 mg/kg, i.p. for maintenance, if necessary). The arterial blood pressure and heart rate were routinely monitored and rectal temperature was continuously monitored and maintained at a physiological range using a thermo-blanket system. The skin of the left hind limb was incised and stitched onto a stainless steel “O” ring to form an oil pool. The sural nerve was carefully exposed and repeatedly teased into small bundles containing only one or a few fibres and examined for spontaneous activity. In acute experiments, when an active fibre was found, a period of at least 20 min control recording was obtained. Subsequently, the effects of the vehicle and Compound 1 (5 mg/kg, i.v.) were examined. Activity was monitored for at least 40 minutes following administration of the drug. The frequency of the spontaneous activity was monitored online and analysed offline after experiment. For i.v. injection, Compound 1 suspension (5 mg/ml) was prepared using a vehicle made of 1% DMSO, 66% polyethelene glycol (PEG 200) and 33% normal saline. The suspension was then sonicated for 30 min before administration.

CCI rats [5] = test: Single oral dose study, mechanical allodynia (von Frey PWT) in rat chronic constriction injury (CCI) model; format: in vivo; settings: 20 mg/kg p.o.; for paw withdrawal threshold (PWT): mean±S.E.M.
Method: The rat chronic constriction injury (CCI) model was prepared following the standard protocols (Bennett and Xie, 1988). Briefly, male Sprague-Dawley rats, weighing 150-175 gram at arrival, were anaesthetized with a 5% isofluorane/95% oxygen gas mixture followed by an i.p. injection of sodium pentobarbitone (50 mg/kg). The lateral side of the left hind limb was shaved and sterilized with 75% ethanol. An incision of about 1 cm was made to expose the sciatic nerve. Four loose ligations with 4-0 suture silk were made on the sciatic nerve. The wound was closed in layers with silk suture and the animals were placed in a recovering chamber with the temperature controlled at 30° C. The animals were then returned to their home cage after complete return of consciousness and the return of free movement. A dose of amoxicillin (0.1 ml, 15 mg) was routinely injected intraperitoneally after surgery to prevent infection. In CCI rats, the assessment of paw withdrawal threshold (PWT) in response to the mechanical stimulation started 14 days after surgery. […] The PWT was measured using a series of graduated von Frey hairs. The animals were placed in individual perspex boxes on a raised metal mesh for at least 30 min before the test. Starting from a filament of lower force (1 g), each filament was applied perpendicularly to the centre of the paw pad until it slightly bends for 6 seconds. If the animal withdrew or lifted the paw upon stimulation, then a hair with force immediately lower than that tested would be used. If no response was observed, then a hair with force immediately higher would be used. The lowest amount of force required to induce reliable responses (positive in 3 out of 5 trials) was recorded as the value of PWT. A suspension of Compound 1 was made with 5% DMSO in saline (10 mg/ml). The suspension was sonicated for at least 20 min before application. All data in this study are presented as mean±S.E.M. and are analysed with the student-t-test or one way ANOVA as appropriate. The significance level was set at P<0.05.

[6] = test system: rat Brennan model of surgical pain; test: PWT in the rat Brennan model of surgical pain; format: in vivo
Method: The surgical pain model was prepared as described by Brennan et al (1996). Briefly, the rat was anaesthetised with 5% isofluorane in oxygen (2 L/min) for induction followed by an intravenous injection of sodium pentobarbitone (50 mg/kg) prior to surgery. The surgery was carried out under aseptic routines. The left hind paw was sterilized with 75% ethanol solution. A 1.5 cm longitudinal incision was made with a scalpel from about 0.5 cm of the heel edge towards the toes. The plantaris muscle and fascia were elevated and incised longitudinally but the structure of these tissues kept intact. After complete hemostasis with pressure, the skin was closed with stitches of 5-0 suture silk. The animal was routinely given an intraperitoneal injection of Amoxipen 15 mg/kg for prevention of infection after surgery. After surgery, the animals were placed in a temperature-controlled recovering chamber until full return of conscience and voluntary movement, before being returned to their home cages.

[7] = test system: lipopolysaccharide-induced polyclonal antibody responses; settings: preclinical studies; cited from earlier work
[8] = test system: rats with diabetic neuropathy; test: PWT in rats with streptozotocin-induced diabetic neuropathy; format: in vivo, rat
Method: Under isofluorane anaesthesia, adult male Sprague-Dawley rats (150-200 g) were given an intraperitoneal injection of streptozotocin (75 mg/kg, Calbiochem). After injection, particular care was taken to ensure that water and food were available at all time and the beddings were changed frequently. A week after streptozocin injection, the blood glucose content was examined using Advantage II with Accutech strips (Roche). Only rats with blood glucose higher than 12 mM/L (216 mg/DL) were chosen for behavioural study. The assessment of neuropathic pain state using von Frey hairs was the same as described for Example 1. Rats with lowered PWT (<4 g) were used for either vehicle (1 ml/kg, p.o. or Compound 1 (1, 3, 10, and 30 mg/kg p.o.) dosing. The PWT was reassessed at 1, 2, 3, 4 and 6 hours after oral dosing.

[9] = test system: ectopic discharge in CCI rats; test: Chronic dosing, generation of ectopic discharge and PWT in CCI rats; format: in vivo, rat
Method: After confirmation of neuropathic pain state on day 16 post-surgery, the animals (4 for vehicle group and 4 for drug treatment group) were given either vehicle (5% DMSO in saline) or Compound 130 mg/kg p.o., twice a day for 8 days. At the end of the dosing protocol, the PWT was reassessed before the electrophysiological experiment. The sural nerve was repeatedly teased into fine bundles for examination. For a fibre with spontaneous activity, the recording lasted for at least 1 min; for a fiber without obvious spontaneous activity, the recording lasted for at least 30 sec. In each sural nerve, as many fibres as possible were teased and recorded (more than 150 bundles on average in one animal).

[10] = doses higher than 3 mg/kg p.o., dose-dependent
[11] = CCI rats after chronic treatment

## O=C1N=C2SCCN2C(=O)C1Cc1ccc(Cl)cc1 (stereo not shown) [Compound 1, 6-(p-chlorobenzyl)-5H-2,3,6,7-tetrahydro-5,7-dioxothiazolo[3,2-a]pyrimidine]
[1]
  kidney function: restored kidney function
CCI rats [2]; after the first day's treatment and throughout the 7 day dosing period, p.o. twice a day
  baseline PWT compared with vehicle group: higher than that observed in the vehicle group
CCI rats [2]; on repeat dosing
  time for which CCI-induced mechanical allodynia is alleviated post-dose: 12 h
CCI rats [2]; over 7 days of treatment
  loss of efficacy in reversing lowered PWT: no significant loss of efficacy
CCI rats [3]
  effect on PWT: dose-dependently increased the PWT
[4]; first CCI preparation, 5 mg/kg i.v., reduced from 682 imps/min
  ectopic discharge after injection: 426 imps/min
[4]; four fibres, after administration, P<0.01
  firing rate of ectopic discharge, % of control: 57.1±9.0 % of control
[4]; four fibres, before drug 489.7±125.8 imps/min, P<0.01
  average firing rate of ectopic discharge after administration: 307.6±113.4 imps/min
[4]; second CCI preparation, iv injection, reduced from 298 imps/min
  ectopic discharge after injection: 104 imps/min
CCI rats [5]
  duration of the effect on PWT: > 6 h
CCI rats [5]; 2 hours after dosing, P<0.05 vs vehicle
  paw withdrawal threshold (PWT): 2.6 ± 0.7 g
CCI rats [5]; 3 hours after dosing, P<0.01 vs vehicle
  paw withdrawal threshold (PWT): 3.0 ± 0.7 g
CCI rats [5]; 4 hours after dosing, P<0.001 vs vehicle
  paw withdrawal threshold (PWT): 6.3 ± 0.8 g
CCI rats [5]; 6 hours after dosing, P<0.001 vs pre-dosing control
  paw withdrawal threshold (PWT): 4.0 ± 0.5 g
[6]
  time after dosing at which the effect on PWT was first observed: 4 h
  time after dosing up to which the effect on PWT lasted: up to 8 hours
[6]; 3 mg/kg, n=7, P>0.05
  changes in PWT: Neither vehicle (n=8) or Compound 1 at 3 mg/kg (n=7) produced significant changes in PWT
[6]; 10 mg/kg
  analgesic effect after 6 hours: had gone
[6]; 10 mg/kg, at 4 hours, from control level 1.50±0.36 g, P<0.05
  PWT: 2.60 ± 0.48 g
[6]; 30 mg/kg, 6 hours post-dose, P<0.001 vs vehicle
  PWT: 5.28 ± 0.66 g
[6]; 30 mg/kg, 8 hours post-dose, P<0.001 vs vehicle
  PWT: 4.16 ± 0.79 g
[6]; 30 mg/kg, at 4 hours, from control level 1.82±3.8 g, P<0.001
  PWT: 3.80 ± 0.44 g
[6]; [10]
  changes in PWT: significantly increased the PWT
[7]
  lipopolysaccharide-induced polyclonal antibody responses: inhibited
[8]; 1 mg/kg p.o.
  changes in PWT: Neither vehicle or Compound 1 at 1 mg/kg produced significant changes in PWT
[8]; [10]
  changes in PWT: significantly increased the PWT
[9]; 4 CCI rats, after 8 days of treatment p.o. twice a day
  PWT compared with vehicle-treated: significantly higher
[9]; [11]
  averaged frequency of spontaneous activity: 888.9 ± 148.5 min⁻¹
  comparison of averaged frequency of spontaneous activity with vehicle group: failed to reveal significant difference
[9]; among 633 fibres recorded from 4 treated rats (vehicle 197 of 602)
  fibres with spontaneous activity: 48 fibres
[9]; chronic treatment of CCI rats, vs vehicle, P<0.001 χ2 test
  proportions of fibres with spontaneous activity: significantly reduced
